Assays:
[1] = tested on: giant foxtail; experiment: Test B pre/postemergence giant foxtail; format: in vivo, Setaria faberii
In short: (§1)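 Response is a visual 0-to-10 score relative to untreated plants, where 0 means no effect and 10 means complete control, taken twelve to sixteen days after application. Treatments went onto soil at planting and onto foliage of 1- to 4-leaf plants, using a surfactant-containing non-phytotoxic solvent.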

[2] = tested on: smallflower flatsedge; experiment: Test B flood test smallflower flatsedge; format: in vivo, Cyperus difformis; conditions: for S. Flatsedge plant response rating: scale of 0 to 10 where 0 is no effect and 10 is complete control
In short: (§2)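 Flood test on plants grown to the 2-leaf stage; treated plants kept in greenhouse twelve to sixteen days, then visually rated against controls on a 0 (no effect) to 10 (complete control) scale.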

[3] = tested on: rice; experiment: Test B flood test rice; format: in vivo, Oryza sativa
In short: as §2

[4] = tested on: corn; experiment: Test B pre/postemergence corn; format: in vivo, Zea mays
In short: as §1

[5] = tested on: cocklebur; experiment: Test B pre/postemergence cocklebur; format: in vivo, Xanthium strumarium
In short: as §1

[6] = tested on: velvetleaf; experiment: Test B pre/postemergence velvetleaf; format: in vivo, Abutilon theophrasti
In short: as §1

[7] = tested on: rape; experiment: Test B pre/postemergence rape; format: in vivo, Brassica napus
In short: as §1

[8] = tested on: duck salad; experiment: Test B flood test duck salad; format: in vivo, Heteranthera limosa
In short: as §2

[9] = tested on: surinam grass; experiment: Test B pre/postemergence surinam grass; format: in vivo, Brachiaria decumbens
In short: as §1

[10] = tested on: wheat; experiment: Test B pre/postemergence wheat; format: in vivo, Triticum aestivum
In short: as §1

[11] = tested on: crabgrass; experiment: Test B pre/postemergence crabgrass; format: in vivo, Digitaria sanguinalis
In short: as §1

[12] = tested on: purple nutsedge; experiment: Test B pre/postemergence purple nutsedge; format: in vivo, Cyperus rotundus
In short: as §1

[13] = tested on: sugar beet; experiment: Test B pre/postemergence sugar beet; format: in vivo, Beta vulgaris
In short: as §1

[14] = tested on: blackgrass; experiment: Test B pre/postemergence blackgrass; format: in vivo, Alopecurus myosuroides
In short: as §1

[15] = tested on: pigweed; experiment: Test B pre/postemergence pigweed; format: in vivo, Amaranthus retroflexus
In short: as §1

[16] = tested on: morningglory; experiment: Test B pre/postemergence morningglory; format: in vivo, Ipomoea hederacea
In short: as §1

[17] = Postemergence, Rate 125 g/ha, scale of 0 to 10 where 0 is no effect and 10 is complete control
[18] = Preemergence, Rate 31 g/ha, visual rating, scale 0 to 10 (0 no effect, 10 complete control)
[19] = Preemergence, Rate 62 g/ha, scale 0 to 10 (0 no effect, 10 complete control)
[20] = Preemergence, Rate 125 g/ha, 0 is no effect, 10 is complete control
[21] = Preemergence, Rate 250 g/ha, scale 0 to 10, 0 is no effect, 10 is complete control
[22] = Rate 31 g/ha, Postemergence, scale 0 to 10
[23] = Rate 62 g/ha, Postemergence, scale of 0 to 10 where 0 is no effect and 10 is complete control
[24] = Rate 250 g/ha, Postemergence, scale 0 to 10, 0 is no effect, 10 is complete control
[25] = Rate 250 g/ha, Postemergence (flood test), scale 0 to 10, 0 is no effect, 10 is complete control
[26] = Postemergence (flood test species), Rate 125 g/ha, scale of 0 to 10 where 0 is no effect and 10 is complete control
[27] = Rate 31 g/ha, Postemergence section (flood test species), scale 0 to 10
[28] = Rate 62 g/ha, Postemergence section, flood test species, scale of 0 to 10 where 0 is no effect and 10 is complete control

Question: Which results are given for `Cc1noc(C)c1-n1c(=O)on(C(=O)N(c2ccc(F)cc2F)C(C)C)c1=O` [Compound 156]?
Answer: Giant foxtail plant response rating [1, 17]: 0; Giant foxtail plant response rating [1, 18]: 0; Giant foxtail plant response rating [1, 19]: 0; Giant foxtail plant response rating (0 to 10 scale) [1, 20]: 2; Giant foxtail plant response rating [1, 21]: 7; Giant foxtail plant response rating [1, 22]: 0; Giant foxtail plant response rating [1, 23]: 0; Plant response rating, Giant foxtail [1, 24]: 0; S. Flatsedge plant response rating ([2]; Postemergence (flood test species), Rate 125 g/ha): 0; S. Flatsedge plant response rating ([2]; Rate 62 g/ha, Postemergence section, flood test species): 0; Plant response rating, S. Flatsedge [2, 25]: 0; Rice plant response rating [3, 26]: 0; Rice plant response rating [3, 27]: 0; Rice plant response rating [3, 28]: 0; Plant response rating, Rice [3, 25]: 0; Corn plant response rating [4, 17]: 0; Corn plant response rating [4, 18]: 0; Corn plant response rating [4, 19]: 0; Corn plant response rating (0 to 10 scale) [4, 20]: 0; Corn plant response rating [4, 21]: 0; Corn plant response rating [4, 22]: 0; Corn plant response rating [4, 23]: 0; Plant response rating, Corn [4, 24]: 0; Cocklebur plant response rating [5, 17]: 0; Cocklebur plant response rating [5, 18]: 0; Cocklebur plant response rating [5, 19]: 0; Cocklebur plant response rating (0 to 10 scale) [5, 20]: 0; Cocklebur plant response rating [5, 21]: 0; Cocklebur plant response rating [5, 22]: 0; Cocklebur plant response rating [5, 23]: 0; Plant response rating, Cocklebur [5, 24]: 0; Velvetleaf plant response rating [6, 18]: 0; Velvetleaf plant response rating [6, 19]: 0; Velvetleaf plant response rating (0 to 10 scale) [6, 20]: 0; Velvetleaf plant response rating [6, 21]: 0; Velvetleaf plant response rating [6, 23]: 0; Plant response rating, Velvetleaf [6, 24]: 0; Rape plant response rating [7, 17]: 0; Rape plant response rating [7, 18]: 0; Rape plant response rating [7, 19]: 0; Rape plant response rating (0 to 10 scale) [7, 20]: 0; Rape plant response rating [7, 21]: 0; Rape plant response rating [7, 22]: 0; Rape plant response rating [7, 23]: 0; Plant response rating, Rape [7, 24]: 0; Ducksalad plant response rating [8, 26]: 0; Ducksalad plant response rating [8, 27]: 0; Ducksalad plant response rating [8, 28]: 0; Plant response rating, Ducksalad [8, 25]: 0; B. signalgrass plant response rating [9, 17]: 0; B. signalgrass plant response rating [9, 18]: 0; B. signalgrass plant response rating [9, 19]: 0; B. signalgrass plant response rating (0 to 10 scale) [9, 20]: 0; B. signalgrass plant response rating [9, 21]: 2; B. signalgrass plant response rating [9, 22]: 0; B. signalgrass plant response rating [9, 23]: 0; Plant response rating, B. signalgrass [9, 24]: 0; Wheat plant response rating [10, 18]: 0; Wheat plant response rating [10, 19]: 0; Wheat plant response rating (0 to 10 scale) [10, 20]: 0; Wheat plant response rating [10, 21]: 0; Wheat plant response rating [10, 23]: 0; Plant response rating, Wheat [10, 24]: 0; Crabgrass plant response rating [11, 17]: 0; Crabgrass plant response rating [11, 18]: 0; Crabgrass plant response rating [11, 19]: 0; Crabgrass plant response rating (0 to 10 scale) [11, 20]: 4; Crabgrass plant response rating [11, 21]: 6; Crabgrass plant response rating [11, 22]: 0; Crabgrass plant response rating [11, 23]: 0; Plant response rating, Crabgrass [11, 24]: 0; Nutsedge plant response rating [12, 17]: 0; Nutsedge plant response rating [12, 18]: 0; Nutsedge plant response rating [12, 19]: 0; Nutsedge plant response rating (0 to 10 scale) [12, 20]: 0; Nutsedge plant response rating [12, 21]: 0; Nutsedge plant response rating [12, 22]: 0; Nutsedge plant response rating [12, 23]: 0; Plant response rating, Nutsedge [12, 24]: 0; Sugarbeets plant response rating [13, 17]: 0; Sugarbeets plant response rating [13, 18]: 0; Sugarbeets plant response rating [13, 19]: 0; Sugarbeets plant response rating (0 to 10 scale) [13, 20]: 0; Sugarbeets plant response rating [13, 21]: 0; Sugarbeets plant response rating [13, 23]: 0; Plant response rating, Sugarbeets [13, 24]: 0; Blackgrass plant response rating [14, 17]: 0; Blackgrass plant response rating [14, 18]: 0; Blackgrass plant response rating [14, 19]: 0; Blackgrass plant response rating (0 to 10 scale) [14, 20]: 0; Blackgrass plant response rating [14, 21]: 3; Blackgrass plant response rating [14, 22]: 0; Blackgrass plant response rating [14, 23]: 0; Plant response rating, Blackgrass [14, 24]: 0; Redroot pigweed plant response rating [15, 17]: 0; Redroot pigweed plant response rating [15, 18]: 0; Redroot pigweed plant response rating [15, 19]: 0; Redroot pigweed plant response rating (0 to 10 scale) [15, 20]: 4; Redroot pigweed plant response rating [15, 21]: 9; Redroot pigweed plant response rating [15, 22]: 0; Redroot pigweed plant response rating [15, 23]: 0; Plant response rating, Redroot pigweed [15, 24]: 0; Morningglory plant response rating [16, 17]: 1; Morningglory plant response rating [16, 18]: 0; Morningglory plant response rating [16, 19]: 0; Morningglory plant response rating (0 to 10 scale) [16, 20]: 0; Morningglory plant response rating [16, 21]: 0; Morningglory plant response rating [16, 22]: 0; Morningglory plant response rating [16, 23]: 0; Plant response rating, Morningglory [16, 24]: 2

Reference: patent US6737383B1, “Herbicidal oxadiazolidines” (priority 1999, dated 2004)
